# Active and inactive are the calls of the source. The calls are words filed in the database; no cut-off is given here.
# How the values were obtained:
# Format in all cases: functional
# [1] = Antioxidant activity assessed as decrease in hydroxyl radical-induced oxidation of DNA measured TBARS production at 400 uM after 30 min by spectrophotometric analysis relative to control; design: scale not given: the % may be the effect or the level left
# [2] = Antioxidant activity assessed as decrease in Cu2+/GSH-induced oxidation of DNA measured TBARS production at 400 uM after 90 min by spectrophotometric analysis relative to control; design: scale not given: the % may be the effect or the level left
# [3] = Antioxidant activity assessed as decrease in AAPH-induced oxidation of DNA measured TBARS production at 100 to 400 uM after 15 min by spectrophotometric analysis
# [4] = Antioxidant activity assessed as decrease in AAPH-induced oxidation of DNA measured TBARS production at 400 uM after 15 min by spectrophotometric analysis
SMILES,Activity [1],Activity [2],Activity [3],Activity [4]
Cc1c2c(nc3cc(O)ccc13)OCC2,95.1%,93.5%,Active,
Cc1c2c(nc3ccccc13)OCC2,95.1%,96.6%,,inactive
Cc1c2c(nc3c(O)cccc13)OCC2,90.8%,92.2%,,
Cc1c2c(nc3ccc(O)cc13)OCC2,88.4%,92.9%,,

# — ChEMBL document CHEMBL3046482, “Facile synthesis of furoquinoline and effects on radical-induced oxidation of DNA” (Med Chem Res, 2013)
